Experiments:
[1] = target: human M2 receptor (Homo sapiens (Human), UniProt P08172); assay: In vitro M2 functional assay (intracellular calcium, FLiPR Tetra); type: cell-based; settings: for M2 EC50 / EC50: CHOK1 cells stably expressing human M2 receptor and Gα16, calcium flux, No Response = no significant response of calcium flux indicative of agonism
Experimental: (§1) In Vitro M4 &M2 Functional Assay
(§2) The functional activity of compounds at the M4 and M2 receptors was determined by measuring changes in the level of intracellular calcium ions caused by signalling cascades mediated by the receptor. Intracellular Calcium levels were measured using a calcium sensitive fluorescent dye, calcium 5 (Molecular Devices) The changes in fluorescence were monitored by a fluorescent imager, FLiPR Tetra (Molecular devices). Increases in intracellular calcium were readily detected upon activation of both receptors by the muscarinic receptor agonist Acetylcholine.
(§3) CHOK1 cells stably expressing human M4 or M2 receptor and co-expressing the accessory g-protein Gα16 were routinely grown as monolayers in Hams-F12 medium (Invitrogen) supplemented with 10% foetal bovine serum (FBS) (Hyclone), 500 ug/mL Geneticin and 250 ug/mL zeocin (both invitrogen) in 5% CO2 at 37° C. Once confluent is cells cryopreserved by freezing at −186° C. in freezing solution (90% FBS 10% DMSO) (Sigma-Aldrich Co.). Twenty-four hours prior to testing cells resuscitated and freezing media removed via centrifugation, cells then seeded in a black walled clear bottom 384 well plates (Corning) at a density of 15,000 cells/well in Hams F12 media supplemented with 10% FBS. On the day of assay, growth media was removed and replaced with 63 μl of Calcium 5 dye solution (Molecular Devices) in assay buffer (HBSS, 20 mM HEPES, 0.1% BSA, 1 mM Probenecid pH7.4 (Sigma-Aldrich Co.)) per well (each vial of Calcium 5 resuspended in 27 mL of assay buffer). Cells were then incubated for 45 minutes at 37° C., 5% CO2. Compound was serially diluted in DMSO (log/half log) before being diluted 1:20 with assay buffer. 7 μl of compound diluted in assay buffer was then added to cells on FLiPR tetra and fluorescence intensity measured for 5 minutes. EC50 values for compounds were determined from ten point half log scale dose-response studies and represent the concentration of compound required to […] maximal response. Curves were generated using the average of duplicate wells for each data point and analyzed using non-linear regression of four parameter dose response. Percentage Relative efficacy (RE) to an EC100 concentration of acetylcholine was reported for all compounds. The results are set out in Table 3 below in which the term “No Response” means that there was no significant response of calcium flux in the assay indicative of agonism.

[2] = target: human M4 receptor (Homo sapiens (Human), UniProt P08173); assay: In vitro M4 functional assay (intracellular calcium, FLiPR Tetra); type: cell-based; settings: for EC50: CHOK1 cells stably expressing human M4 receptor and Gα16, calcium flux; for Emax: relative efficacy to an EC100 concentration of acetylcholine, read-out: M4 % RE
Experimental: as §1, §2, §3

human M4 receptor, sequence (P08173 whole entry): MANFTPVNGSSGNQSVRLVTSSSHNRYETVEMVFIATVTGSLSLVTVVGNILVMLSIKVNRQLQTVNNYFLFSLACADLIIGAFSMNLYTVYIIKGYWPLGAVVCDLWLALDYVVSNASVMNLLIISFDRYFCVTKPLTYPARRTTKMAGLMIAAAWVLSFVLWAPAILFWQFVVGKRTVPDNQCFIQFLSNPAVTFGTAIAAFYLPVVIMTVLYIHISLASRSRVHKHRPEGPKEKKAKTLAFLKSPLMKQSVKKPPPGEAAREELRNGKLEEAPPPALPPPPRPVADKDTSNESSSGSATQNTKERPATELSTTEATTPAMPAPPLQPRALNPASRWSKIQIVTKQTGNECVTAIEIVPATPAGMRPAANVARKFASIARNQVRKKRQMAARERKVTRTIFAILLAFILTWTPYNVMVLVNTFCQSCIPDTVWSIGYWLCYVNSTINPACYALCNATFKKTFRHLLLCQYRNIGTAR
human M2 receptor, sequence (P08172 whole entry): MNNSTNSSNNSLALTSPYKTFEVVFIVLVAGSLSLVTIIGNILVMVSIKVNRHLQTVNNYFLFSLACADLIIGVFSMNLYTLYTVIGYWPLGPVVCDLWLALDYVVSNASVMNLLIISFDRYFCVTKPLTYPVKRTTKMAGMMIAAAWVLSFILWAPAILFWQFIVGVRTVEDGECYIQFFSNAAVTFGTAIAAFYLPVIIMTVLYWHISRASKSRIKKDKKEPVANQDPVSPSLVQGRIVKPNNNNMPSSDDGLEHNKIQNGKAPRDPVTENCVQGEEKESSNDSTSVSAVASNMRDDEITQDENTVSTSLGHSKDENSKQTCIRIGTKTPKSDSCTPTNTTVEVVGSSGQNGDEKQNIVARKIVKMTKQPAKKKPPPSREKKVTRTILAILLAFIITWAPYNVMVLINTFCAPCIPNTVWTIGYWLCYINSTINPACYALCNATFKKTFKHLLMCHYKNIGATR

| M2 EC50 [1] | EC50 [2] | Emax [2] | EC50 [1] | activation at 10 µM ([1]; response at 10 μM compound, relative to an EC100 concentration of acetylcholine, read-out: M2 % RE @ 10 μM) | M2 % RE ([1]; relative efficacy to an EC100 concentration of acetylcholine) | Compound |
| --- | --- | --- | --- | --- | --- | --- |
| No Response | 2350 nM | 24% | – | – | – | CCOC(=O)N1CCCC(N2CCC(c3cccn(CC#N)c3=O)CC2)CC1 (centres unmarked) [Example 56, Ethyl 4-{4-[1-(cyanomethyl)-2-oxo-1,2-dihydropyridin-3-yl]piperidin-1-yl}azepane-1-carboxylate] |
| No Response | 1550 nM | 31% | – | – | – | CCOC(=O)N1CCC(N2CCC(c3cccnc3C)CC2)CC1 [Example 46, Ethyl 4-[4-(2-methylpyridin-3-yl)piperidin-1-yl]piperidine-1-carboxylate] |
| – | 130 nM | 67% | > 10000 nM | 26% | – | CCOC(=O)N1CCCC(N2CCC(c3cccnc3OC(C)C)CC2)CC1 (centres unmarked) [Example 55, Ethyl 4-{4-[2-(propan-2-yloxy)pyridin-3-yl]piperidin-1-yl}azepane-1-carboxylate] |
| – | 190 nM | 77% | 2260 nM | – | 37% | CCOC(=O)N1CCCC(N2CCC(n3nccc3C3CC3)CC2)CC1 (centres unmarked) [Example 20, Ethyl 4-[4-(5-cyclopropyl-1H-pyrazol-1-yl)piperidin-1-yl]azepane-1-carboxylate] |
| No Response | 3340 nM | 39% | – | – | – | CCOC(=O)N1CCC(N2CCC(c3nc(OC)cc(OC)n3)CC2)CC1 [Example 37, Ethyl 4-[4-(4,6-dimethoxypyrimidin-2-yl)piperidin-1-yl]piperidine-1-carboxylate] |
| No Response | 1870 nM | 51% | – | – | – | CCOC(=O)N1CCCC(N2CCC(c3nccn3CC(=O)NC3CCCCC3)CC2)CC1 (centres unmarked) [Example 2, Ethyl 4-(4-{1-[(cyclohexylcarbamoyl)methyl]-1H-imidazol-2-yl}piperidin-1-yl)azepane-1-carboxylate] |
| No Response | 1480 nM | 59% | – | – | – | CCOC(=O)N1CCCC(N2CCC(n3nccc3CNC(C)=O)CC2)CC1 (centres unmarked) [Example 28, Ethyl 4-{4-[5-(acetamidomethyl)-1H-pyrazol-1-yl]piperidin-1-yl}azepane-1-carboxylate] |
| No Response | 460 nM | 25% | – | – | – | CCOC(=O)N1CCCC(N2CCC(c3cncc(OC)c3)CC2)CC1 (centres unmarked) [Example 45, Ethyl 4-[4-(5-methoxypyridin-3-yl)piperidin-1-yl]azepane-1-carboxylate] |
| No Response | 2680 nM | 36% | – | – | – | COC(=O)N1CCC(CN2CCC(n3nc(C)cc3C)C2)CC1 (centres unmarked) [Example 78, Methyl 4-{[3-(3,5-dimethyl-1H-pyrazol-1-yl)pyrrolidin-1-yl]methyl}piperidine-1-carboxylate] |
| No Response | 1740 nM | 44% | – | – | – | CCOC(=O)N1CCCC(N2CCC(c3nccn3CC)CC2)CC1 (centres unmarked) [Example 10, Ethyl 4-[4-(1-ethyl-1H-imidazol-2-yl)piperidin-1-yl]azepane-1-carboxylate] |
| No Response | 270 nM | 46% | – | – | – | CCOC(=O)N1CCCC(N2CCC(n3nccc3-c3sc(C)nc3C)CC2)CC1 (centres unmarked) [Example 25, Ethyl 4-{4-[5-(dimethyl-1,3-thiazol-5-yl)-1H-pyrazol-1-yl]piperidin-1-yl}azepane-1-carboxylate] |
| No Response | 460 nM | 50% | – | – | – | CCOC(=O)N1CCCC(N2CCC(c3cncc(N(C)C)n3)CC2)CC1 (centres unmarked) [Example 50, Ethyl 4-{4-[6-(dimethylamino)pyrazin-2-yl]piperidin-1-yl}azepane-1-carboxylate] |
| No Response | 6730 nM | 25% | – | – | – | CCOC(=O)N1CCC(N2CCC(c3ccnc(C)n3)CC2)CC1 [Example 36, Ethyl 4-[4-(2-methylpyrimidin-4-yl)piperidin-1-yl]piperidine-1-carboxylate] |
